This experiment has as its target Potassium voltage-gated channel subfamily KQT member 4 (Homo sapiens) (UniProt P56696). Description: KCNQ4 channel modulation, potentiation or inhibition, dose response, selectivity assay for KCNQ2 activator project, thallium flux, KCNQ4-expressing cells (AID 504416). Conditions: FluxOR thallium flux fluorescence.

Activity calls are given as the source filed them.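 How the source made its calls: active means raises or lowers thallium flux through KCNQ4 potassium channels at some tested dose, with a fitted dose response curve; inactive means no effect at any dose or no curve.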

The term EC50 denotes the midpoint of the concentration-response curve.

Chain of Potassium voltage-gated channel subfamily KQT member 4 (Homo sapiens) (P56696 whole entry, looked up): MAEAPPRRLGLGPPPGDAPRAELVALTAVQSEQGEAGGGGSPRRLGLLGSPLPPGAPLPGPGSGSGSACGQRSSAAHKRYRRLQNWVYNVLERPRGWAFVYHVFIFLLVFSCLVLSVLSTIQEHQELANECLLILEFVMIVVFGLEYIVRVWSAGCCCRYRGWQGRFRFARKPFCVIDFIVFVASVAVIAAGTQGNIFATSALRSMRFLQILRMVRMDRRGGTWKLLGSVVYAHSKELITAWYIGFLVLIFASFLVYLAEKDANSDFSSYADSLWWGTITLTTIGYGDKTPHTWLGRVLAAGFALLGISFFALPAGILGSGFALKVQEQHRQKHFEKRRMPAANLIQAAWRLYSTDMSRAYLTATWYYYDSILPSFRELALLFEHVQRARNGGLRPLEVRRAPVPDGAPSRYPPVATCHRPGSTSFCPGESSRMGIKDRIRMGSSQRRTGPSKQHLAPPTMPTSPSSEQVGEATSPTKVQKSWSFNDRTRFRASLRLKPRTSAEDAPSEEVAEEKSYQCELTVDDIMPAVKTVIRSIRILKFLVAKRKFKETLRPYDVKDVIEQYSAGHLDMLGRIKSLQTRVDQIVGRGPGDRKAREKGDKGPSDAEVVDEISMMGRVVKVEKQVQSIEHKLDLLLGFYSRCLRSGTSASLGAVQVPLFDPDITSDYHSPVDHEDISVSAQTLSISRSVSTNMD

Regarding `Cc1cc(C)c(NC(=O)C2CC3CCC2C3)c(C)c1` (configuration not stated), the concentration giving a half-maximal response (EC50) was 2400 nM. Turning to `Cc1cccc(C)c1NC(=O)C1CC2CCC1C2` (configuration not stated), the potentiation result (at 30 µM (top of the series)) was “inactive”.

The values are drawn from PubChem BioAssay AID504416 (Johns Hopkins Ion Channel Center, 2011).
